The target in one series is T1, LuxS of E. coli (Escherichia coli O157:H7, UniProt Q8X902).
T1 construct: endogenous in cells; host or cells: E. coli O157:H7 (ATCC 43895)
T1 sequence (Q8X902 2-171): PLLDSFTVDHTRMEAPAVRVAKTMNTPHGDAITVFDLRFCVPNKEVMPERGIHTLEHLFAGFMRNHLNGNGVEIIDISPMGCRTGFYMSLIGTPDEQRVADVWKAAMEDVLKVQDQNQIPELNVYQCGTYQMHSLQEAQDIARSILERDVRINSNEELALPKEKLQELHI
The experiment in a line: AI-2 bioluminescence assay (V. harveyi BB170 reporter) of AI-2 production. It is filed as cell-based. The settings on record: E. coli O157:H7 cultured 16 h with inhibitor, supernatant read with V. harveyi BB170.

The test system of the next series is Caco-2 cells. The experiment in a line: Cytotoxicity, CCK-8 assay. The format is cell-based. The settings on record: 24 h. Here is the method:
The cytotoxicity of hit compounds was assessed by a CCK-8 assay in Caco-2 cells. At 37°C, Caco-2 cells (1 × 10^5 cells/mL) were seeded in a 96-well plate for 24 h. Further, different concentrations of hit compounds were added to 96-well plates at final concentrations of 6.25, 12.5, 25, 50, and 100 μM. After incubation for 24 h, the plate was incubated at 37°C for 1 h with 10 μL of CCK-8 (MCE, China). A Multiskan Go Reader (Thermo Fisher Scientific) was used to measure the absorbance at 450 nm.

In the next series the test system is luxS gene. The format is cell-based, E. coli.
Series [1] deals with E. coli O157:H7. The experiment in a line: Metabolic activity, alamarBlue assay. Conditions: 6.25 to 100 μM, 24 h, compared to the control.
A further series has as its system E. coli O157:H7 biofilm. In words: Biofilm formation, crystal violet (CV) staining. Conditions: 50 μM, 24 h. It is filed as cell-based, Escherichia coli O157:H7. The protocol: Based on previous studies, CV staining was used to assess biofilm formation ([67]). The overnight cultured E. coli O157:H7 was diluted to OD600 of 0.01. The diluted E. coli suspensions were mixed with different concentrations of hit compounds and incubated at 37°C for 24 h. The plate was washed three times using PBS (pH 7.2) before it was fixed with methanol for 30 min. After staining for 30 min with CV, the plates were rinsed with distilled water and dried at 55°C. Finally, the CV attached to wells was dissolved in 95% ethanol. The absorbance at 570 nm was then measured using a Multiskan Go Reader.

The target in the next series is T2, LuxS (Escherichia coli O157:H7, UniProt Q8X902).
T2 sequence (Q8X902 2-171): T1 sequence (Q8X902 2-171)
The experiment in a line: Surface plasmon resonance (BIAcore T200) binding. The protocol: The binding affinity of the three compounds and LuxS was assessed by SPR assay using a BIAcore T200 (GE Healthcare, Pittsburgh, PA) ([64]). The LuxS protein was immobilized on a CM5 sensor chip with the final immobilization levels of 7,582.4 resonance units (RU). The running buffer used in the study was 1.0× phosphate-buffered saline containing detergent (PBS-P^+; pH 7.4) and 5% (vol/vol) dimethyl sulfoxide. For each binding cycle, the compound was injected for 120 s with a dissociation time of 180 s. A series of compound concentrations (0.94, 1.88, 3.75, 7.5, 15, and 30 μM) were injected for analysis, with furanone C30 as a positive control. Eventually, data were analyzed by Biacore evaluation software, whereas the equilibrium dissociation constant (KD = Kd/Ka) was calculated by curve fitting with a 1:1 binding model.

In series [2] the test system is E. coli O157:H7. In words: Growth, microbroth dilution assay (OD600). The format is cell-based, Escherichia coli O157:H7. The settings on record: 6.25 to 100 μM, 24 h, compared to the control. Here is the method:
As described for previous protocols, growth and metabolic activity were evaluated by the broth dilution method and an alamarBlue assay ([65], [66]). Briefly, 96-well plates were seeded with bacterial suspension (OD600 = 0.01) containing different concentrations of hit compounds and incubated at 37°C for 24 h. At 600 nm, the absorbance was measured using the Multiskan Go Reader (Thermo Fisher Scientific, USA).

[3] abbreviates: IC50, AI-2 bioluminescence assay.

Where two headings read alike, the source gives them in different places.

In turn, `O=C(NCc1nc2ccccc2[nH]1)c1ccccc1` [0180-0358] gave an IC50 at LuxS of E. coli (setting [3]) of 22.5 µM.

At LuxS of E. coli (setting [3]), `CCOc1ccc(NCC(=O)N/N=C/c2c[nH]c3ccccc23)cc1` [1761-1352] gave an IC50 of 29.2 µM. This IC50 and that of the molecule before are within 1.5-fold of each other.

With `O=C(N/N=C/c1ccc(O)c(O)c1)c1cc(-c2ccc3ccccc3c2)n[nH]1` [3254-3286], in the series on Caco-2 cells (6.25 to 100 μM), the “cytotoxicity to Caco-2 cells” value was “nontoxic”. In the series with luxS gene, the “suppression of the expression of LuxS” value was ~57.4%. The molecule further showed an IC50 on LuxS of E. coli (setting [3]) of 7.57 µM. For the same molecule, in the series with E. coli O157:H7 [1], the “effect on metabolic activity of E. coli” value was “no significant effect”. Further, the “biofilm formation, increased by about” value in the series on E. coli O157:H7 biofilm was ~81.12%. Moreover, the affinity on LuxS, expressed as Kd, was 18.5 µM. The “effect on growth of E. coli” value in the series with E. coli O157:H7 [2] is on record as “no significant effect”.

In the case of `COc1ccc2[nH]c(C(=O)NC3CCC(CN4Cc5ccccc5C4=O)CC3)c(C)c2c1` (stereo not shown) [D753-0186], half-maximal inhibition on LuxS of E. coli (setting [3]) (IC50) was put at 18.8 µM.

`Cc1ccc2ccc3cc(C(=O)NCCN4CCN(c5cccc(Cl)c5)CC4)[nH]c3c2n1` [E941-0195] registered an IC50 against LuxS of E. coli (setting [3]) of 28.5 µM.

For `O=C(NCCN1CCN(c2cccc(Cl)c2)CC1)c1cc2ccc3cccnc3c2[nH]1` [E950-0195], on LuxS of E. coli (setting [3]), the IC50 is 32.8 µM. The IC50 values of the last two molecules are within 1.5-fold of each other.

On to `O=C(NCCN1CCN(c2ccccc2F)CC1)c1cc2ccc3cccnc3c2[nH]1` [E950-0198], for which the IC50 against LuxS of E. coli (setting [3]) amounted to 30.9 µM. The IC50 values of the last two molecules are within 1.5-fold of each other.

`Cc1cc(CNC(=O)Nc2cccc3c2CCCC3)c(C)n1-c1ccccc1` [E983-1808] yielded an IC50 at LuxS of E. coli (setting [3]) of 21.9 µM.

The molecule `NC1=C(c2nc3ccccc3s2)C(=O)CN1c1cccc(C(=O)NCc2ccccc2)c1` [F187-0533] showed an IC50 at LuxS of E. coli (setting [3]) of 13.6 µM.

Regarding `Cc1[nH]c(C(=O)NC2CCCCC2)c(C)c1S(=O)(=O)N1CCCCCC1` [F379-1612], the IC50 on LuxS of E. coli (setting [3]) was found to be 26.1 µM.

`COc1ccc(C(=O)Nc2cc(NC(=O)c3cc4ccccc4[nH]3)ccc2OC)cc1` [F603-0744] showed an IC50 at LuxS of E. coli (setting [3]) of 12.3 µM.

In turn, `O=C(NCC1CCN(Cc2ccc(Cl)cc2)CC1)c1n[nH]c2c1COc1ccccc1-2` [G365-0523] came in with an IC50 against LuxS of E. coli (setting [3]) of 12.2 µM.

As to `COc1cccc(NC(=O)CSCc2cc(=O)c3ccccc3[nH]2)c1` [G751-0153], it took 16.8 µM to reach half-maximal inhibition on LuxS of E. coli (setting [3]) (IC50).

Molecule `CCc1ccc(NC(=O)CSCc2cc(=O)c3cccc(F)c3[nH]2)cc1` [G751-5415] came in with an IC50 against LuxS of E. coli (setting [3]) of 26.4 µM.

The molecule `CCc1ccc(NC(=O)CSCc2cc(=O)c3cc(CC)ccc3[nH]2)cc1` [G751-5495] registered an IC50 on LuxS of E. coli (setting [3]) of 24.8 µM.

With `Cc1ccc(C(=O)N2CCc3cc(CNC(=O)c4ccc(C#N)cc4)ccc32)cc1` [G883-0304], the IC50 on LuxS of E. coli (setting [3]) turned out to be 19 µM.

On to `Cc1ccc(C(=O)N2CCc3cc(CNC(=O)c4ccc(Br)cc4)ccc32)cc1` [G883-0331], for which the IC50 at LuxS of E. coli (setting [3]) was 15 µM.

`Cc1ccc(C(=O)NCc2ccc3c(c2)CCN3C(=O)c2ccc(Cl)cc2)cc1` [G883-0476] showed an IC50 against LuxS of E. coli (setting [3]) of 18.6 µM.

In turn, `O=C(NCc1ccc2c(c1)CCN2C(=O)c1ccccc1)c1ccc(Cl)cc1` [G883-0595] yielded an IC50 against LuxS of E. coli (setting [3]) of 18.6 µM.

With `O=C(NCc1ccc2c(c1)CCN2C(=O)c1ccccc1)c1ccc(Br)cc1` [G883-0627], at LuxS of E. coli (setting [3]), the IC50 was found to be 19.6 µM.

`O=C(NCc1ccc2c(c1)CCN2C(=O)c1ccc(F)cc1)c1cc2ccccc2[nH]1` [G883-0849]: the IC50 at LuxS of E. coli (setting [3]) came to 21.8 µM.

As to `CC(C)C(=O)N1CCc2cc(CNC(=O)c3cc4ccccc4[nH]3)ccc21` [G883-2010], the IC50 against LuxS of E. coli (setting [3]) is 24.9 µM. The IC50 values of the last two molecules are within 1.5-fold of each other.

As to `O=C(NCc1nc(-c2ccc3c(c2)ncn3C2CCCC2)no1)c1ccccc1` [G945-0601], at LuxS of E. coli (setting [3]), half-maximal inhibition (IC50) required 13.4 µM.

`O=C(NC1CCN(Cc2ccccc2)CC1)c1ccc(-c2cc(N3CCCC3)ncn2)cc1` [L010-0050] had an IC50 on LuxS of E. coli (setting [3]) of 20.4 µM. This IC50 lies about 1.5-fold higher than the previous one.

The molecule `CSc1ccc(CNC(=O)c2cccc(-c3cnc(N4CCCC4)nc3)c2)cc1` [L368-0079] had an IC50 against LuxS of E. coli (AI-2 bioluminescence assay) of 7.01 µM. For the same molecule, the “biofilm formation, increased by about” value with E. coli O157:H7 biofilm is ~76.8%.

`CCC(=O)N1CCc2cc(-c3ccc(C(=O)NC4CCN(Cc5ccccc5)CC4)cc3)ccc21` [L413-0101] showed a concentration for half-maximal inhibition (IC50) against LuxS of E. coli (setting [3]) of 13.3 µM.

In the case of `CCC(=O)N1CCc2cc(-c3ccc(C(=O)NCc4ccc(N(C)C)cc4)cc3)ccc21` [L413-0180], the “cytotoxicity to Caco-2 cells” value in the series with Caco-2 cells (100 μM) is recorded as “slightly cytotoxic”; in the series on Caco-2 cells (6.25 to 50 μM) it was “nontoxic”. Further, in the series on luxS gene, the “suppression of the expression of LuxS” value is listed as ~65.1%. This molecule returned an IC50 against LuxS of E. coli (setting [3]) of 4.03 µM. In addition, the “effect on metabolic activity of E. coli” value in the series on E. coli O157:H7 [1] is reported as “no significant effect”. The “biofilm formation, increased by about” value with E. coli O157:H7 biofilm was ~51.4%. The Kd at LuxS was determined as 77.7 µM. Further, in the series with E. coli O157:H7 [2], the “effect on growth of E. coli” value is recorded as “no significant effect”.

On to `CSc1ccc(CNC(=O)C2=Cc3cc(-c4ccccc4)ccc3OC2)cc1` [L449-1159], for which the IC50 at LuxS of E. coli (AI-2 bioluminescence assay) was 8.64 µM. Also, the “biofilm formation, increased by about” value in the series on E. coli O157:H7 biofilm was “about 75.4%”.

Turning to `CCCn1cnc2cc(CNC(=O)c3cc4cc(Cl)ccc4[nH]3)ccc21` [M414-3326], in the series on Caco-2 cells (6.25 to 100 μM), the “cytotoxicity to Caco-2 cells” value is given as “nontoxic”. Also, the “suppression of the expression of LuxS” value in the series with luxS gene is “about 59.9%”. The molecule also gave an IC50 at LuxS of E. coli (AI-2 bioluminescence assay) of 9.62 µM. The “effect on metabolic activity of E. coli” value in the series with E. coli O157:H7 [1] was “no significant effect”. The “biofilm formation, increased by about” value in the series on E. coli O157:H7 biofilm is ~53.6%. The Kd on LuxS (read-out: equilibrium dissociation constant (KD), LuxS immobilized on CM5 chip, PBS-P+ pH 7.4, 5% DMSO, 1:1 binding model) worked out at 1.92 µM. Also, the “effect on growth of E. coli” value in the series with E. coli O157:H7 [2] was “no significant effect”.

For the molecule `CCCc1c(C)c2ccc(OC(=O)CNC(=O)c3ccccc3)cc2oc1=O` [Y040-2389], at LuxS of E. coli (setting [3]), the IC50 stood at 12.8 µM.

In the case of `O=C1C=C(Br)/C(=C/Br)O1` [furanone C30, reference compound], the Kd on LuxS (LuxS immobilized on CM5 chip, PBS-P+ pH 7.4, 5% DMSO, 1:1 binding model, read-out: equilibrium dissociation constant (KD)) came to 0.345 µM.

The values above are taken from publication PMC10100900, “Virtual Screening and In Vitro Experimental Verification of LuxS Inhibitors for Escherichia coli O157:H7” (Microbiology Spectrum, 2023).
